Each structure is given as a SMILES string. Calls of active or inactive are those of the source. No cut-off for these calls is given here.

Data on two compounds can be found in ChEMBL document CHEMBL3244158, “Dimerization of coralyne and its propyl analogue and their association with DNA” (J Med Chem, 1979).

The experiment relates to Calf thymus DNA. Nature of the experiment: Binding affinity to calf thymus DNA at 0.033 to 0.995 ligand to DNA ratio by spectrophotometer analysis. The class given is nucleic-acid assay. The conditions noted are these: Bos taurus.

As for `CCCc1c2cc(OC)c(OC)cc2cc2c3cc(OC)c(OC)cc3cc[n+]12`, the outcome was Active.
In the case of `COc1cc2cc3c4cc(OC)c(OC)cc4cc[n+]3c(C)c2cc1OC` it was “Active”.
